Results on one compound are retold here after patent US7317037B2, “Progesterone receptor modulators comprising pyrrole-oxindole derivatives and uses thereof” (Wyeth, priority 2004, dated 2008).

Data set [1] is described as follows: Cynomolgus monkey intravenous pharmacokinetics. The settings on record: in vivo, cynomolgus monkeys, 0.25 mg/kg i.v. From the text:
Therefore from the preceding data it is clear that the R6=fluorine group present in 5-(7-fluoro-3,3-dimethyl-2-oxo-2,3-dihydro-1H-indol-5-yl)-1-methyl-1H-pyrrole-2-carbonitrile dramatically improves the pharmacokinetic performance of the molecule. This improved pharmacokinetic performance translates in the cynomolgus menses induction assay to a dramatic improvement in activity.

Data set [2] concerns rat uterine decidualization. The experiment in a line: Rat decidualization assay. In kind it is in vivo. The settings on record: po, read-out: ED50 in the rat decidual assay. As for the experimental part: B. Progestational and Antiprogestational Activity in Mature Ovariectomized Rats (Rat Decidualization Assay)
This assay is used to evaluate the effect of progestins and antiprogestins on rat uterine decidualization and compare the relative potencies of various test compounds.
Test compounds are dissolved in 100% ethanol and mixed with corn oil (vehicle). Stock solutions of the test compounds in oil (Mazola™) are then prepared by heating (˜80° C.) the mixture to evaporate ethanol. Test compounds are subsequently diluted with 100% corn oil or 10% ethanol in corn oil prior to the treatment of animals. No difference in decidual response is found when these two vehicles are compared. […]
Approximately 24 hr after the third injection, decidualization is induced in one of the uterine horns of anesthetized rats by scratching the antimesometrial luminal epithelium with a blunt 21 G needle. […] Approximately 24 hr following the final treatment, rats are sacrificed by […] and bodyweight measured. […]
In agonist mode, the increase in weight of the decidualized uterine horn is calculated by D-horn/C-horn and logarithmic transformation is used to maximize normality and homogeneity of variance. […] EC50 is calculated from the transformed value. […] IC50 is calculated from the retransformed value. […]

For the compound `Cn1c(C#N)ccc1-c1cc(F)c2c(c1)C(C)(C)C(=O)N2` [5-(7-fluoro-3,3-dimethyl-2-oxo-2,3-dihydro-1H-indol-5-yl)-1-methyl-1H-pyrrole-2-carbonitrile], the AUC(0-inf) in data set [1] (read-out: exposure (AUC0-∞)) came to 578 ng·h/mL. Further, the half-life in data set [1] (read-out: mean half life (t1/2) (converted)) is 8.8 h. Further, the median effective dose (ED50) in data set [2] was 0.1 mg/kg.
